# Results from ChEMBL document CHEMBL1127989, “Structure-activity studies of synthetic FKBP ligands as peptidyl-prolyl isomerase inhibitors” (Bioorg Med Chem Lett, 1994).
# Assay: Apparent inhibition constant against peptidyl prolyl isomerase; range=0.004-0.010
# Conditions: read-out: Ki app
row,Structure (SMILES),Ki
1,CCC(C)(C)C(=O)C(=O)N1CCCC[C@@H]1C(=O)OC(CCc1ccccc1)c1ccc2ccccc2c1 (stereo partly specified),4 nM

# Assay: Inhibition constant against peptidyl prolyl isomerase
# Conditions: read-out: Ki app
row,Structure (SMILES),Ki
1,CCOC(=O)C1CCCCN1C(=O)C(=O)C(C)(C)COC(C)=O (stereo unspecified),1000 nM
2,CCC(C)(C)C(=O)C(=O)N1CCCCC1C(=O)OCc1cccc2ccccc12 (stereo unspecified),250 nM
3,CC(C)(CCC1CCCCC1)OC(=O)C1CCCCN1C(=O)C(=O)C1CCCCC1 (stereo unspecified),200 nM
4,CCC(C)(C)C(=O)C(=O)N1CCCCC1C(=O)OCCCCc1ccccc1 (stereo unspecified),100 nM
5,C/C(=C\c1ccccc1)COC(=O)C1CCCCN1C(=O)C(=O)C1CCCCC1 (stereo unspecified),300 nM
6,CCCC(=O)C1CCCCN1C(=O)C(=O)C(C)(C)CC (stereo unspecified),30000 nM
7,CCOC(=O)C1CCCCN1C(=O)C(C)=O (stereo unspecified),170000 nM
8,CCOC(=O)C1CCCCN1C(=O)C(=O)C1(OC)CCCCO1 (stereo unspecified),4000 nM
9,CCC(C)(C)C(=O)C(=O)N1CCCCC1C(=O)OCCCc1ccc(OC)c(OC)c1 (stereo unspecified),20 nM
10,CCC(C)(C)C(=O)C(=O)N1CCCCC1C(=O)OCCC(c1ccccc1)c1ccccc1 (stereo unspecified),27 nM
11,CCC(C)(C)C(=O)C(=O)N1CCCCC1C(=O)OCCCc1cccnc1 (stereo unspecified),165 nM
12,C=CCN(CC(=O)OCC)C(=O)C(=O)C1(OC)CCCCC1,260000 nM
13,CCC(C)(C)C(=O)C(=O)N1CCCCC1C(=O)OCCCc1ccccc1 (stereo unspecified),110 nM
14,CCC(C)(C)C(=O)C(=O)N1CCCC[C@H]1C(=O)OC(CCc1ccccc1)C1CCCCC1 (stereo partly specified),300 nM
15,CCOC(=O)C1CCCCN1C(=O)C(=O)CC(C)C (stereo unspecified),2000 nM
16,O=C(C(=O)N1CCCCC1C(=O)NCCCc1ccccc1)C1CCCCC1 (stereo unspecified),1000 nM
17,CCC(C)(C)C(=O)C(=O)N1CCCCC1C(=O)OCCc1c[nH]c2ccccc12 (stereo unspecified),330 nM
18,CCOC(=O)C1CCCCN1C(=O)C(=O)c1ccccc1 (stereo unspecified),8000 nM
19,CCOC(=O)C1CCCCN1C(=O)C(=O)C(C)C (stereo unspecified),6000 nM
20,CCC(C)(C)C(=O)C(=O)N1CCCCC1C(=O)OCc1ccc2ccccc2c1 (stereo unspecified),200 nM
21,CCOC(=O)[C@@H]1CCCN1C(=O)C(=O)C1(OC)CCCCC1,8000 nM

row,Structure (SMILES),Ki
1,O=C(O[C@H](CCc1ccccc1)c1ccccc1)[C@@H]1CCCCN1S(=O)(=O)Cc1ccccc1,160 nM
2,CCC(C)(C)C(=O)C(=O)N1CCCCC1C(=O)OCC(C)(C)C (stereo unspecified),410 nM
3,CCC(C)(C)C(=O)C(=O)N1CCCCC1C(=O)OCCCC1CCCCC1 (stereo unspecified),186 nM
4,O=CC1CCCCN1C(=O)C(=O)C1CCCCC1 (stereo in doubt; 59),20 nM
5,CCC(C)(C)C(=O)C(=O)N1CCCCC1C(=O)OCCCc1c[nH]c2ccccc12 (stereo unspecified),23 nM
6,CCC(C)(C)C(=O)C(=O)N1CCCCC1C(=O)OC/C=C/c1ccc(OC)c(OC)c1 (stereo unspecified),35 nM
7,CCOC(=O)C1CCCCN1C(=O)C(=O)Cc1ccccc1 (stereo unspecified),9000 nM
8,CCC(C)(C)C(=O)C(=O)N1CCCC[C@@H]1C(=O)OC(CCC1CCCCC1)c1ccccc1 (stereo partly specified),10 nM
9,C=CC(C)(C)C(CCc1ccccc1)OC(=O)[C@H]1CCCCN1C(=O)C(=O)C(C)(C)CC (stereo partly specified),250 nM
10,O=CC1CCCCN1C(=O)C(=O)C1CCCCC1 (stereo in doubt; 44),200 nM
11,CCOC(=O)[C@H]1CCCN1C(=O)C(=O)C1(OC)CCCCC1,600000 nM
12,CCC(C)(C)C(=O)C(=O)N1CCCCC1C(=O)OCCCc1cc(OC)c(OC)c(OC)c1 (stereo unspecified),12 nM
13,CCOC(=O)C1CCCCN1C(=O)C(=O)C1CCCCC1 (stereo unspecified),2000 nM
14,CCOC(=O)C1CCCCN1C(=O)C(=O)CC (stereo unspecified),50000 nM
15,CCOC(=O)CN(C)C(=O)C(=O)C1(OC)CCCCC1,23000 nM
16,CCC(C)(C)C(=O)C(=O)N1CCCC[C@@H]1C(=O)OC(CCc1ccccc1)C1CCCCC1 (stereo partly specified),7 nM
17,COc1cc(CC[C@@H](OC(=O)[C@@H]2CCCCN2C(=O)CC(C)(C)C)c2ccccc2)cc(OC)c1OC,200 nM
18,CCC(C)(C)C(O)C(=O)N1CCCC[C@H]1C(=O)OCCCc1ccccc1 (stereo partly specified),2300 nM
19,O=C(C(=O)N1CCCCC1C(=O)OCc1ccccc1)C1CCCCC1 (stereo unspecified),400 nM
20,CCOC(=O)C1CCCCN1C(=O)C(=O)C1=CCCCO1 (stereo unspecified),20000 nM
21,COc1cc(CCCOC(=O)[C@@H]2CCCCN2S(=O)(=O)Cc2ccccc2)cc(OC)c1OC,230 nM

row,Structure (SMILES),Ki
1,CCOC(=O)C1CCCCN1C(=O)C(=O)C1(O)CCCCC1 (stereo unspecified),1600 nM
2,CCOC(=O)C1CCCN(C(=O)C(=O)C2(OC)CCCCO2)C1 (stereo unspecified),180000 nM
3,CCOC(=O)C1CCCCN1C(=O)C(=O)N1CCCCC1 (stereo unspecified),33000 nM
4,CCOC(=O)[C@H]1CCCCN1C(=O)C(=O)C1(OC)CCCCC1,22000 nM
5,O=CC1CCCCN1C(=O)C(=O)C1CCCCC1 (stereo in doubt; 35),250 nM
6,CCOC(=O)C1CCCCN1C(=O)C(=O)C(C)(C)C (stereo unspecified),2000 nM
7,COC1(C(=O)C(=O)N2CCCCC2)CCCCO1 (stereo unspecified),160000 nM
8,CCC(C)(C)C(=O)C(=O)N1CCCCC1C(=O)OCCCc1ccc(O)cc1 (stereo unspecified),95 nM
9,CO[C@H]1C[C@@H]2CC[C@@H](C)[C@@](O)(O2)C(=O)C(=O)N2CCCC[C@H]2C(=O)O[C@H]([C@H](C)C[C@@H]2CC[C@@H](O)[C@H](OC)C2)CC(=O)[C@H](C)/C=C(\C)[C@@H](O)[C@@H](OC)C(=O)[C@H](C)C[C@H](C)/C=C/C=C/C=C/1C [SIROLIMUS],1000 nM
10,O=C(C(=O)N1CCCC[C@H]1C(=O)OC(CCC1CCCCC1)c1ccccc1)C1CCCCC1 (stereo partly specified),16000 nM
11,CCC(C)(C)C(=O)C(=O)N1CCCC[C@@H]1C(=O)OC(CCc1cc(OC)c(OC)c(OC)c1)c1ccccc1 (stereo partly specified),9 nM
12,CCC(C)(C)C(=O)C(=O)N1CCCCC1C(=O)OCCCc1ccccc1OC (stereo unspecified),60 nM
13,CCOC(=O)C1CCCCN1C(=O)C(=O)C1(OC)CCCCC1 (stereo unspecified),1000 nM
14,CCOC(=O)C1CCCCN1C(=O)C(=O)C(C)(C)CC (stereo unspecified),660 nM
15,CCC(C)(C)C(=O)C(=O)N1CCCCC1C(=O)OC(CCc1ccccc1)Cc1ccccc1 (stereo unspecified),55 nM
16,CCC(C)(C)C(=O)C(=O)N1CCCCC1C(=O)OCCCc1ccc(OCc2ccccc2)cc1 (stereo unspecified),60 nM
17,CCC(C)(C)C(=O)C(=O)N1CCCCC1C(=O)OCCCc1ccc(OC)cc1 (stereo unspecified),70 nM
18,CCC(C)(C)C(=O)C(=O)N1CCCCC1C(=O)OCCc1ccccc1 (stereo unspecified),340 nM
19,CCC(C)(C)C(=O)C(=O)N1CCCC[C@@H]1C(=O)OC(CCc1ccc2c(c1)OCO2)c1ccccc1 (stereo partly specified),9 nM
20,CCOC(=O)C1CCCCN1C(=S)C(=O)CC(C)C (stereo unspecified),4300 nM
21,CCOC(=O)C1CCCCN1NC(=O)C1CCCCC1 (stereo unspecified),730000 nM

# Assay: Apparent inhibition constant against peptidyl prolyl isomerase; range=0.3-0.6
# Conditions: read-out: Ki app
row,Structure (SMILES),Ki
1,CCC(C)(C)C(=O)C(=O)N1CCCC[C@H]1C(=O)OC(CCc1ccccc1)c1ccccc1 (stereo partly specified),300 nM

# Assay: Apparent inhibition constant against peptidyl prolyl isomerase (Ki app)
# Conditions: not given
row,Structure (SMILES),Ki
1,O=C(C(=O)N1CCCCC1C(=O)N(CCCc1ccccc1)Cc1ccccc1)C1CCCCC1 (stereo unspecified),20 µM
2,CCOC(=O)C(CCc1ccccc1)NC(=O)[C@H]1CCCCN1C(=O)C(=O)C1CCCCC1 (stereo partly specified),1.9 µM
3,O=C(C(=O)N1CCCCC1C(=O)NCCc1ccccc1)C1CCCCC1 (stereo unspecified),3 µM
4,O=C(C(=O)N1CCCC[C@@H]1C(=O)NC(CO)Cc1ccccc1)C1CCCCC1 (stereo partly specified),60 µM

# Same assay, conditions: read-out: Ki app
row,Structure (SMILES),Ki
1,CCOC(=O)C1CCCCN1C(=O)C(=O)C1(O)CCCCO1 (stereo unspecified),7 µM

# Assay: Apparent inhibition constant against peptidyl prolyl isomerase; range = 0.002-0.006
# Conditions: read-out: Ki app
row,Structure (SMILES),Ki
1,CCC(C)(C)C(=O)C(=O)N1CCCC[C@@H]1C(=O)OC(CCc1ccc(OC)c(OC)c1)c1ccccc1 (stereo partly specified),2 nM
